# From article PMC5478727, “A Novel Small Molecule GDNF Receptor RET Agonist, BT13, Promotes Neurite Growth from Sensory Neurons in Vitro and Attenuates Experimental Neuropathy in the Rat” (Frontiers in Pharmacology, 2017)
# Experiments:
# RET = target: T1, RET (Homo sapiens, UniProt P07949); assay: Luciferase reporter-gene assay (PathDetect Elk-1), RET reporter cells; assay type: cell-based; conditions: RET reporter cell line
# T1 construct: full-length human RET (long isoform) in pCR3.1; expressed in transfected cells; host or cells: MG87RET murine fibroblasts
# T1 sequence (P07949 29-1114): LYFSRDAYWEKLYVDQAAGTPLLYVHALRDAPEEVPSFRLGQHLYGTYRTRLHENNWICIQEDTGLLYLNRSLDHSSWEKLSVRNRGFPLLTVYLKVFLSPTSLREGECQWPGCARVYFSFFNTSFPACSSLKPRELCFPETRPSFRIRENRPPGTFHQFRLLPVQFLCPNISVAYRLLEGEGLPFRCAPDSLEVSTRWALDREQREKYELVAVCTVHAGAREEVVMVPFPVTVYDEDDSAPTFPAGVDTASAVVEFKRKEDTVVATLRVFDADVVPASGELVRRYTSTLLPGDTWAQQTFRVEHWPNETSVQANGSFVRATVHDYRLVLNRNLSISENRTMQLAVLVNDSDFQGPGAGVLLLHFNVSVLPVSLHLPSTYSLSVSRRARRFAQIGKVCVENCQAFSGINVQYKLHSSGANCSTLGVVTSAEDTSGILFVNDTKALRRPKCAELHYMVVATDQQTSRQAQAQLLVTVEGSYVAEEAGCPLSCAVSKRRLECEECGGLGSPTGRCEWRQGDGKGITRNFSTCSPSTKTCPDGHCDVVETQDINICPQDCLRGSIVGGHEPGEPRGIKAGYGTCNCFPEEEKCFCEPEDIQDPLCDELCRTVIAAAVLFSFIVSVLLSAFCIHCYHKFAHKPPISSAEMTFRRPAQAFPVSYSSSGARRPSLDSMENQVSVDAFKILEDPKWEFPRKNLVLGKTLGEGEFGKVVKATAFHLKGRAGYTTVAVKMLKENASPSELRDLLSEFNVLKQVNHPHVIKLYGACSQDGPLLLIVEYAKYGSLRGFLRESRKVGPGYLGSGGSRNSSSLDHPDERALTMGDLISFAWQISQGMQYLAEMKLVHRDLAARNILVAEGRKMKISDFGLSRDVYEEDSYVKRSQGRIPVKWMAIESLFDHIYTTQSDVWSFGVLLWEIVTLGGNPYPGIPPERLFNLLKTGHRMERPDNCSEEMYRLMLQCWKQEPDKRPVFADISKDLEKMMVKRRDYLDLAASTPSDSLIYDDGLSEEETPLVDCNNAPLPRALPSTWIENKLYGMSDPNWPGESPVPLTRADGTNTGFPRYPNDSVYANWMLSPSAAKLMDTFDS
# [1] = test system: Akt and Erk phosphorylation (RET downstream targets); assay: Erk1/2 and Akt phosphorylation assay in MG87RET fibroblasts; assay type: cell-based, murine; conditions: 25–50 μM; in the presence and absence of GFRα3 co-receptor
# [2] = target: cholecystokinin receptor CK1 (CCKA) (Homo sapiens, UniProt P32238); assay: CEREP CK1 (CCKA) (h) (agonist radioligand); assay type: binding; conditions: BT13 1 μM; Cat. No. 0039; average of duplicate; read-out: Percentage of inhibition/potentiation from control
# Sequence of cholecystokinin receptor CK1 (CCKA) (P32238 whole entry): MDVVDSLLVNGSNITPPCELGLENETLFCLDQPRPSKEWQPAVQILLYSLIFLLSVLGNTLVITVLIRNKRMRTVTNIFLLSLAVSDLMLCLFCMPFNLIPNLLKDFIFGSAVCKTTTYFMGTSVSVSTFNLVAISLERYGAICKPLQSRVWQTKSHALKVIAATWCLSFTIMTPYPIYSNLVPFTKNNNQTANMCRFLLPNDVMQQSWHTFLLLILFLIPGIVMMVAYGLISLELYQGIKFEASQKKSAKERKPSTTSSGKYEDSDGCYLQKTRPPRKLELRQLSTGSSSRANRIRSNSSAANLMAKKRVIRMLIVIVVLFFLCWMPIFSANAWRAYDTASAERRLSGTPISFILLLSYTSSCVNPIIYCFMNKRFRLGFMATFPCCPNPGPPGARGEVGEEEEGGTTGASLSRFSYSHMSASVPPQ
# histamine receptor H2 = histamine receptor H2 (Homo sapiens, UniProt P25021); assay: CEREP H2 (h) (antagonist radioligand); assay type: binding; conditions: BT13 1 μM; Cat. No. 1208; average of duplicate; read-out: Percentage of inhibition/potentiation from control
# Sequence of histamine receptor H2 (P25021 whole entry): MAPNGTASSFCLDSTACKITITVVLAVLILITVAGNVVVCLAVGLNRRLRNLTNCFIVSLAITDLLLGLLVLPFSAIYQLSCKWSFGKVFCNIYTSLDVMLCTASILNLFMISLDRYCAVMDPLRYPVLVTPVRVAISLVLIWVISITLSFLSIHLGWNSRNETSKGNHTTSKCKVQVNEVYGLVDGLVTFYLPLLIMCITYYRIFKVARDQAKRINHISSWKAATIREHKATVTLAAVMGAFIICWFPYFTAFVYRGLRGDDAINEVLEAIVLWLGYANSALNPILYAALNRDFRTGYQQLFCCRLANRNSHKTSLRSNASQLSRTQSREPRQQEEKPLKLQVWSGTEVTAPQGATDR
# [3] = target: T2, opioid receptor kappa (KOP) (Rattus norvegicus, UniProt P34975); assay: CEREP Kappa (KOP) (agonist radioligand); assay type: binding; conditions: BT13 1 μM; Cat. No. 1971; average of duplicate; read-out: Percentage of inhibition/potentiation from control
# T2 construct: purchased CEREP (contract assay) 1971
# T2 sequence (P34975 whole entry): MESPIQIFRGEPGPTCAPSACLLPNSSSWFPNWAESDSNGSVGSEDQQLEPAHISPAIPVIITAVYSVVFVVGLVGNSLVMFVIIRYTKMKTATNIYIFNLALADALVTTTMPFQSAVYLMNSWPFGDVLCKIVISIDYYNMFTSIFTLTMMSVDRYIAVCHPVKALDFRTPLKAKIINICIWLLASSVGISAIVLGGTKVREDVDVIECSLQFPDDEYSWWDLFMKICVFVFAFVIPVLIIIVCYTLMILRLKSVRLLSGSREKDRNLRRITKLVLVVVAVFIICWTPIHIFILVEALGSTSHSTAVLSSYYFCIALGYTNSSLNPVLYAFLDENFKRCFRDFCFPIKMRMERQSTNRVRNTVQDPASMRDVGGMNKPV
# [4] = target: T3, serotonin receptor 5-HT1D (Rattus norvegicus, UniProt P28565); assay: CEREP 5-HT1D (agonist radioligand); assay type: binding; conditions: BT13 1 μM; Cat. No. 1974; average of duplicate; read-out: Percentage of inhibition/potentiation from control
# T3 construct: purchased CEREP (contract assay) 1974
# T3 sequence (P28565 whole entry): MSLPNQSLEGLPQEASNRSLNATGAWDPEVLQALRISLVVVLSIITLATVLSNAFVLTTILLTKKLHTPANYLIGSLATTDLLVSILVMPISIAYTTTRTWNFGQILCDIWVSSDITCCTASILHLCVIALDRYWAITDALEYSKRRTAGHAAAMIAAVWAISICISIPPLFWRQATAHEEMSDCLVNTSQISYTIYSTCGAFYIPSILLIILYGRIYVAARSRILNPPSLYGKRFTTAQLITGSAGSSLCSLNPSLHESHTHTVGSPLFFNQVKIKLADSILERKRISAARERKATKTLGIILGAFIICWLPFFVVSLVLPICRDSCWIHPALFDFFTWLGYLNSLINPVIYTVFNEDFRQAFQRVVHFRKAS
smiles,measurement,setting,value
CCN(CC)S(=O)(=O)c1ccc(OC)c(N2CCN(C(=O)c3ccc(F)cc3C(F)(F)F)CC2)c1 [BT13],"efficacy, fold induction of luciferase above baseline",RET,7.4 fold
same,EC50,"RET; 0.1–50 μM, read-out: EC50, luciferase activation",20.7 µM
same,phosphorylation of RET downstream targets Akt and Erk,[1],elicited phosphorylation
same,inhibition at 1 µM,[2],3%
same,inhibition at 1 µM,histamine receptor H2,9%
same,inhibition at 1 µM,[3],0%
same,inhibition at 1 µM,[4],1%
